Read-outs that look alike come from different tables or passages of the source. Where no end group is shown, it is not given here.
Assays:
B. firmus DPC6349 = test: Minimum inhibitory concentration (MIC) assay, two-fold serial dilutions in LB broth; type: cell-based, Bacillus firmus; settings: for MIC, fold higher than thuricin CD: B. firmus DPC6349, in molar values
Procedure: In this study, B. firmus DPC6349 was utilized as a surrogate thuricin CD-sensitive host, in lieu of thuricin CD-sensitive C. difficile strains. The aerobic growth conditions of DPC6349, in conjunction with its class I status, facilitated the FC experiments in this study. MIC assays were conducted as previously described with minor modifications ([Mathur et al., 2013]). Briefly, cells of the bacteriocin-sensitive strain B. firmus DPC6349 were grown overnight for 16 h in LB broth at 37°C with vigorous agitation (150 rpm). The following day, the cells were subcultured until they reached mid-logarithmic phase (an OD600 of approximately 0.5). At this point, cells were diluted such that the final inoculum for MIC assays was approximately 5 × 10^5 cfu/ml. Thuricin CD peptides, Nisin A and lacticin 3147 peptides were resuspended in LB broth. The potassium ionophore, valinomycin, was initially reconstituted in DMSO (Molecular Probes) prior to diluting in PBS and subsequently diluting in LB broth. All antimicrobials were finally diluted in LB broth to give the desired starting concentrations and two-fold serial dilutions were performed in 96-well microtitre plates, for MIC assays. MIC readings were taken at 18 h and the MIC was defined as the lowest concentration of the antimicrobial at which there was no visible growth of the target strain. Assays were conducted in triplicate.

B. firmus DPC6349 cells = test: Time course flow cytometry of membrane potential (DiOC2(3)), cell size (FSC) and granularity (SSC); type: cell-based, Bacillus firmus
Description: Used alone or in combination with fluorescent probes, FC enables the assessment of various structural and functional cell properties, often leading to a deeper characterization of the physiological heterogeneity of a microbial population ([Díaz et al., 2010]). Membrane potential in microbial cells can be detected by FC following staining with fluorescent lipophilic cell-permeant probes such as DiOC2(3). […] Conversely, fluorescence-independent monitoring by FC of the forward (FSC) and side-angle (SSC) light scattering properties of a bacterial population provides useful information about morphological parameters such as cell size and internal granularity/complexity, respectively ([Díaz et al., 2010]; [Shapiro, 2015]). The impact of the thuricin CD peptides, Trnα and Trnβ, on the membrane potential and morphology of sensitive B. firmus DPC6349 cells was therefore assessed by FC as follows. Cells from a 100 μl aliquot of an overnight culture were recovered by centrifugation (8260 g for 10 min), diluted 10-fold in 1 ml of LB broth and activated by incubation at 37°C for 30 min. At this point, the cells were diluted a further 25-fold and stained for 30 min with a solution of 6.3 μM DiOC2 (3) (Thermo Fisher Scientific), prepared in PBS and containing 0.21% glucose to energize the cells and thereby generate a large membrane potential. Aliquots of 1.4 ml of stained samples were acquired at medium flow rate (35 μl/sec) using a BD Accuri C6 flow cytometer (Becton Dickinson, Belgium) and a threshold of 10000 on FSC to minimize background. Acquisition and analysis of DiOC2(3) fluorescence (FL3, > 670 nm long pass), cell size (FSC) and cell complexity/granularity (SSC) were carried out using the BD Accuri C6 software v. 1.0.2 (Becton Dickinson, Belgium). The microbial population was identified based on its light scattering properties on FSC versus SSC bi-plots and a gating strategy was used to discriminate it from background particles and cell debris. The time course changes in membrane potential and morphology of DPC6349 cells following challenge with an antimicrobial were assessed using the “Run Unlimited” function of the C6 flow cytometer. Unchallenged DiOC2(3)-stained cells were initially acquired for 2 min to establish baseline levels of membrane potential and morphological parameters. Subsequently, a small aliquot of a 10–15x stock solution of an antimicrobial in PBS was added and its effect on the physiology of the sensitive target monitored over 15–25 min. The impact on the host’s membrane potential of individual, combined and sequentially added thuricin CD peptides, Trnα or Trnβ, was compared to those exerted by the proton motive force (PMF)-depleting agents Nisin A ([Bruno et al., 1992]), lacticin 3147 ([McAuliffe et al., 1998]), and valinomycin ([Shapiro, 2004]). Stock solutions of valinomycin were prepared in DMSO, whereas diluted working solutions were made using PBS. To generate high external potassium conditions and trigger the membrane depolarizing activity of valinomycin ([Shapiro, 2004]; [Cronin, 2015]), 150mM KCl was added to the PBS used to prepare the DiOC2(3) staining solution. Assays were conducted in duplicate.

[1] = B. firmus DPC6349, approx. 5 × 10^5 cfu/ml, LB broth, read at 18 h, no visible growth, triplicate

| Compound | MIC (B. firmus DPC6349; [1]) [µg/mL] | MIC, fold higher than thuricin CD (B. firmus DPC6349) | MIC (B. firmus DPC6349; Cytobacillus firmus, B. firmus DPC6349, approx. 5 × 10^5 cfu/ml, LB broth, read at 18 h, no visible growth, triplicate, read-out: MIC) [µM] | Effect on membrane potential and cell size (B. firmus DPC6349 cells; (approximately 3x MIC), DiOC2(3)) | MIC (B. firmus DPC6349; Cytobacillus firmus, DPC6349, 18 h) [µM] | Effect on cell size and granularity (B. firmus DPC6349 cells; 156 nM (0.25x MIC), 150 mM extracellular KCl) | Effect on membrane potential (B. firmus DPC6349 cells; 156 nM (0.25x MIC), 150 mM extracellular KCl, DiOC2(3)) | MIC (B. firmus DPC6349; B. firmus DPC6349, approx. 5 × 10^5 cfu/ml, LB broth, read at 18 h, no visible growth, triplicate, read-out: MIC) [µM] | Effect on cell size (FSC) and granularity (SSC) (B. firmus DPC6349 cells; 3 μM (approximately 10x MIC)) | Effect on membrane potential (B. firmus DPC6349 cells; 3 μM (approximately 10x MIC), DiOC2(3) red fluorescence) | Time to membrane depolarization after adding the peptide (B. firmus DPC6349 cells; 3 μM (approximately 10x MIC), DiOC2(3)-stained energized cells, duplicate) [min] |
| --- | --- | --- | --- | --- | --- | --- | --- | --- | --- | --- | --- |
| O=C(N[C@H](CO)[C@H](O)c1ccc([N+](=O)[O-])cc1)C(Cl)Cl [Chloramphenicol, chloramphenicol] | 2.423 | 60 fold | 7.5 | no membrane depolarization and reduction in cell size |  |  |  |  |  |  |  |
| CC(C)[C@@H]1NC(=O)[C@H](C)OC(=O)[C@@H](C(C)C)NC(=O)[C@@H](C(C)C)OC(=O)[C@H](C(C)C)NC(=O)[C@H](C)OC(=O)[C@@H](C(C)C)NC(=O)[C@@H](C(C)C)OC(=O)[C@H](C(C)C)NC(=O)[C@H](C)OC(=O)[C@@H](C(C)C)NC(=O)[C@@H](C(C)C)OC1=O [Valinomycin, valinomycin] | 0.69 | five-fold higher |  |  | 0.625 | no reduction in cell size or granularity | immediate and sharp membrane depolarization |  |  |  |  |
| Nisin A (ITSISLCTPGCKTGALMGCNMKTATCHCSIHVSK; also: lantibiotic post-translational modifications (thioether rings), not given here; UniProt P13068 24-57, looked up) [pore-forming single-component lantibiotic bacteriocin] | 1.046 | approximately 2.5 fold |  |  |  |  |  | 0.312 | decreases in cell size (FSC) and granularity/complexity (SSC) | very fast membrane depolarization | ≤ 4 |

— publication PMC5397516, “Insights into the Mode of Action of the Sactibiotic Thuricin CD” (Frontiers in Microbiology, 2017)
